Reference: patent US7304062B2, “Peroxisome proliferator activated receptor alpha agonists” (Eli Lilly and Company, priority 2000, dated 2007)

Row | melting point [°C] | SMILES
1 | 94 to 96.5 | CCCn1c(CCCc2ccc(OC(C)(C)C(=O)O)cc2)nn(Cc2ccc(C)cc2)c1=O
2 | 86.5 to 88.2 | CCCn1c(CCCc2ccc(OC)cc2)nn(Cc2ccc(C)cc2)c1=O [Example 118, 5-[3-(4-Methoxyphenyl)-propyl]-2-(4-methylbenzyl)-4-propyl-2,4-dihydro[1,2,4]tria-zol-3-one]
